Experimental data as given in PubChem BioAssay (NCI).
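Method: 48-hour compound exposure of cells in 96-well plates, five concentrations, linear interpolation of endpoints. GI50: concentration for 50% inhibition of growth. The concentration for full growth arrest is given as TGI.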

Key:
Test in all cases: NCI tumour cell line growth inhibition, 48 h
HT29 colon = tested on: HT29 colon
OVCAR-5 ovarian = tested on: OVCAR-5 ovarian
NCI-H460 lung = tested on: NCI-H460 lung
COLO 205 colon = tested on: COLO 205 colon
LOX IMVI melanoma = tested on: LOX IMVI melanoma
MALME-3M melanoma = tested on: MALME-3M melanoma
MDA-MB-231 breast = tested on: MDA-MB-231 breast
RXF 393 renal = tested on: RXF 393 renal
HCC-2998 colon = tested on: HCC-2998 colon
SNB-19 CNS = tested on: SNB-19 CNS

Structure (SMILES)	GI50 (HT29 colon) [µM]	TGI (HT29 colon) [µM]	GI50 (OVCAR-5 ovarian) [µM]	TGI (OVCAR-5 ovarian) [µM]	GI50 (NCI-H460 lung) [µM]	TGI (NCI-H460 lung) [µM]	GI50 (COLO 205 colon) [µM]	TGI (COLO 205 colon) [µM]	GI50 (LOX IMVI melanoma) [µM]	TGI (LOX IMVI melanoma) [µM]	GI50 (MALME-3M melanoma) [µM]	TGI (MALME-3M melanoma) [µM]	GI50 (MDA-MB-231 breast) [µM]	TGI (MDA-MB-231 breast) [µM]	GI50 (RXF 393 renal) [µM]	TGI (RXF 393 renal) [µM]	GI50 (HCC-2998 colon) [µM]	TGI (HCC-2998 colon) [µM]	GI50 (SNB-19 CNS) [µM]	TGI (SNB-19 CNS) [µM]
COc1ccc(-c2oc(=O)ccc2-c2cc(OC)c(OC)c(OC)c2)cc1F	4.93	> 100	35.6	> 100	5.43	> 100	18	> 100	10.9	> 100	3.24	> 100	16	> 100	11.6	29.1	33.4	> 100	53.2	> 100
N#Cc1c(-c2ccc(F)cc2)c(-c2ccc(F)cc2)nn(CCO)c1=O		> 22.9		> 100		> 25.1		2.44		> 47.6		> 100		> 71		11.2		28.4		> 100
O=c1cc(-c2ccccc2)[nH]c2c(S)cccc12		> 100		> 100		> 100		> 100				> 100		> 100		> 100		> 100		> 100
CC(=C\c1ccccc1)/C=C(\C#N)C(N)=O		> 10		> 10		> 10		> 10		> 10		> 10		> 10		> 10		> 10		
COc1cc(C2c3cc4c(cc3C(O)C(CO)C2CO)OCO4)cc(OC)c1OC (centres undefined)	0.422		5.69	> 100	0.463	> 26.4	0.725	5.76	0.656	> 100			3.69	> 100	1.12	> 100	1.78	> 100	2.6	> 100
CCN(CC)CCOc1ccc(/C=C2\CC3C4CC=C5C[C@@H](O)CC[C@]5(C)C4CC[C@]3(C)C2=O)cc1OC (some centres undefined)	2.29	> 100	5.53	20.3	5.42	> 53					2.01	12.3	2.31	7.38	5.64	21.5	8.43	21.6	4.67	> 64
Oc1cc(O)c2c(c1)OC(c1ccc(O)c(O)c1)C(OC1(c3cc(O)c(O)c(O)c3)Oc3cc(O)cc(O)c3C(O)C1O)C2 (centres undefined)		41		59.3		36.8		> 85.9		38.4		> 100		45.8		> 100		> 100		> 100
O=C(c1ccc(Cl)cc1)c1cnc(Nc2ccccc2Cl)s1		> 100		95.5		> 59.8		> 100		> 100		46.7		> 100		42.8		> 87.8		51.3
N#C/C=C(\c1ccc([N+](=O)[O-])cc1)n1nnc2cc(Cl)c(Cl)cc21	2.05	4.23	1.95	3.99	2.36	6.98	1.91	3.91	1.67	3.19	1.7	4.18	2.34	8.66	1.82	3.77	1.77	3.33	2.37	7.14
Cc1nc2cnc(N)c(C#Cc3cncc(C(=O)Nc4ccc(CN5CCN(C)CC5)c(C(F)(F)F)c4)c3)c2nc1C	0.0456	2.72	0.304	11	0.478	11.7	0.0558	0.634	0.101	1.05	0.0339	0.163	0.209	2.13	0.515	1.93	0.651	13.1	4.36	16.9
CC1(C)OCCn2c1nc1c(N3CCOCC3)nc(-c3cnc(N)nc3)nc12	0.23	> 100	0.249	> 100	0.187	> 100	0.217	5.95	0.265	> 27.4	0.0974	0.6	0.457	> 89.2	0.211	1.69	0.412	> 100	1.01	> 30.2
Cc1nc2ccccc2nc1-c1ccc(N=[N+]([O-])c2ccc(-c3nc4ccccc4nc3C)cc2)cc1		> 100		> 100		> 100		> 100		> 100		> 100		> 80.2		> 95.1		> 100		> 100
Nc1nc(N)c(N=Nc2ccc([As](=O)(O)O)cc2)c(=O)[nH]1		> 100		> 100		> 100		> 100		> 100		> 100		> 100		> 100		> 100		> 100
Nc1nccc2c1ccn2-c1ccc(NC(=O)c2ccc(N3CCOCC3)c(C(F)(F)F)c2)cc1	0.322	1.26	1.64	20.6	0.352	1.65	0.297	0.871	0.331	1.48	1.58	6.71	0.346	1.47	0.158	0.378	2.98	29.1	0.61	8.13
COC1C(O)=C2C(=O)O/C(C)=C/C=C/C=C/C=C\CC(c3ccccc3)NC(=O)\C=C/C=C\C=C\C=C\[C@@]2(C)[C@@H]1O (some centres undefined)		0.0531		0.413				0.0564		1.09		0.329		0.0896		0.0962		0.586		0.141
CCN1CCN=c2c3cc(OC)ccc3n3cnc4ccc1c2c43		1.01		0.929		0.308		0.606		0.776		1.1		0.814		1.05		0.94		1.95
CCN(CC)c1nc(-c2ccc(Cl)cc2Cl)nc2ccccc12	37.6	> 100	26.1	> 68.1	23.9	> 79.5	19.5	48.8	17.1	36	18.9	49.7	4.2	23.2	17.2	42.5	16.7	31.7	40.8	> 100
CCCNC(=S)/N=C/c1c(O)c2ccccc2[nH]c1=O		> 100		> 100		> 100		> 100		> 100				> 100		> 100		> 100		> 100
Cc1[nH]c2ccccc2c1-c1cc(-c2cc(-c3c(C)[nH]c4ccccc34)on2)no1		> 100		> 100		> 100		> 100		> 100		> 100		> 100		> 100		> 100		> 100
CC(=O)OC12c3ccccc3-c3ccccc3C1C1C(=O)N(C)C(=O)C12Cl (centres undefined)		> 10		> 10		> 10		> 10		> 10		> 10		> 10		> 10		> 10		> 10
NS(=O)(=O)c1ccc(N(/C=C/C(=O)C(F)(F)F)CC(=O)c2ccc(Cl)cc2)cc1	35.6	> 100	57	> 100	31.8	89	32.2	> 100	31.2	98.9	24.9	92.6	36.3	> 100	> 100	> 100	55.7	> 100	51.2	> 100
O=C(CC(O)(C(F)(F)F)C(F)(F)F)c1cc(CC(=O)C(O)(C(F)(F)F)C(F)(F)F)cc(CC(=O)C(O)(C(F)(F)F)C(F)(F)F)c1		4.28		> 9.25		2.25		3.06		2.81		6.33		3.3		4.43		4.19		> 10
Nc1c(C(=O)Nc2cccc(Br)c2)sc2nc3c(cc12)C(=O)CCC3	0.37	> 100	6.82	> 100	0.373	> 100	0.401				0.579	> 100	1.68	61.1	0.372	15.9	1.46	> 53.2	7.34	> 100
C=CCc1cccc(/C=N/NC(=O)CN2CCN(Cc3ccccc3)CC2)c1O	3.24	13.7	4.46	18.1	1.41	11.6	2.22	13.9	1.05	6.59	5.79	19.8	2.49	15.5	0.638	16.1	2.74	17.1	5.36	20.1
CCCCCCNC(=O)c1nc(-c2ccccc2)oc1Cc1ccc(OP(=O)(O)O)cc1	19.5	37.8	14.6	28.5	20.2	43	17	31.2	16.4	30.2	19.3	37	17.2	36.6	16.7	31.3	18.2	33.4	22	> 100
CCOC(=O)C(=Cc1cccc(Cl)c1)C(=O)OCC	2.39	5.57	1.8	3.54	3.71	12.6	2.21	4.42	1.65	3.12			2.35	5.04	1.91	3.53	1.79	3.24	2.37	6.66
COc1cc(CNCCCN2C(=O)c3ccc4c5c(ccc(c35)C2=O)C(=O)N(CCCNCc2cc(OC)c(OC)c(OC)c2)C4=O)cc(OC)c1OC	0.163	0.933	0.801	2.79	0.316	1.04	0.139	0.352	0.14	0.525	0.334	1.02	0.252	2.27	0.35	0.99	0.363	0.915	0.398	1.25
CC1=CC(=O)[C@@H](O)[C@]2(C)[C@H]3[C@@]4(O)OC[C@]35[C@H]([C@@H](C)[C@H]4O)[C@@H](O)C(=O)O[C@@H]5C[C@@H]12				5.4		4.85		2.45		0.62		0.445		1.44		4.46		2.51		3.69
COc1ccccc1N1CCN(CCCn2c(=O)c3c(OC)nc(C)cc3c(=O)n2-c2ccccc2)CC1	> 100	> 100	> 100	> 100	> 100	> 100	> 100	> 100	> 100	> 100	> 100	> 100	> 100	> 100			> 100	> 100	> 100	> 100
COC12C=C/C(=C(/C(=O)OCc3ccncc3)C(=O)CCCCCCCCC3(OC)C=C/C(=C(/C(=O)OCc4ccncc4)C(=O)CCCCCCCC1)O3)O2	0.721	4.79	0.87	4.6	0.915	1.98	0.78	2.18	0.107	0.264			0.686	6.51	0.277	0.896	0.683	1.39	1.28	7.17
